In US5364864A, “1,4-disubstituted piperidines, their preparation and their application in therapy” (priority 1991, dated 1994):

Biological target: acetylcholinesterase (Homo sapiens, UniProt P22303)
Assay: Inhibition of acetylcholinesterase activity (method of Ellman et al.)
Format: biochemical

Chain of acetylcholinesterase (P22303 32-614): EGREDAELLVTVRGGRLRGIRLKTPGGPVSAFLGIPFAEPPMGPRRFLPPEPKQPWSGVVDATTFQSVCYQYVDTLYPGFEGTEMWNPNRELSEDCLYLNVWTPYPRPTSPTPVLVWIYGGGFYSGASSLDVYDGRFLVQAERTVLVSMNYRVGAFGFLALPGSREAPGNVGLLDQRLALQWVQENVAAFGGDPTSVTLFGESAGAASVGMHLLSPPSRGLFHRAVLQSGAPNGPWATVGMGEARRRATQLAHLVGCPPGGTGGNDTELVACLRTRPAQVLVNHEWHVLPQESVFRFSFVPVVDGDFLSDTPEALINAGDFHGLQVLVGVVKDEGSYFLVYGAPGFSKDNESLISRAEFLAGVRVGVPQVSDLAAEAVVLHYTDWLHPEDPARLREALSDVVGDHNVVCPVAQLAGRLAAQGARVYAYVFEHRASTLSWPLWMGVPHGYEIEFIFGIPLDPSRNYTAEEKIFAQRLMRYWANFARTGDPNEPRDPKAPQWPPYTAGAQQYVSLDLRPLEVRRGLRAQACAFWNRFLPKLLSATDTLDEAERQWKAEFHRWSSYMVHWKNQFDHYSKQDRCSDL

`S=C(NCCC1CCN(Cc2ccccc2)CC1)Nc1ccccc1` [Compound 1, 1-Phenyl-3-[2-(1-benzyl-4-piperidyl)ethyl]thiourea] was tested, and the IC50 was 320 nM.
